Earlier results in patent US12514832B2, “Methods for using low-dose colchicine after myocardial infarction” (INSTITUT DE CARDIOLOGIE DE MONTREAL, priority 2019, dated 2026).

Legend:
[1] = CIRT; cited from earlier work
interleukin-13 = interleukin-13 (Homo sapiens, UniProt P01584); conditions: CANTOS; cited from earlier work

Question: For `CN(Cc1cnc2nc(N)nc(N)c2n1)c1ccc(C(=O)N[C@@H](CCC(=O)O)C(=O)O)cc1` [methotrexate], which “effect on cardiovascular outcomes or plasma markers of inflammation (in words)” value [1] is on record?
Answer: Its value is “did not affect cardiovascular outcomes or plasma markers of inflammation”.

Question: Which “incidence of fatal infections versus placebo (in words)” value (interleukin-13) does the source give for “canakinumab: injectable monoclonal antibody; anti-inflammatory studied in CANTOS” here?
Answer: The value was “slightly higher incidence of fatal infections”.
